Source: publication PMC3736441 (Marine Drugs, 2013)
pIC50: −log10 of the molar value.

How the values were obtained:
[1] = tested on: human nasopharyngeal carcinoma cells (KB); conditions: MTT
Method: (§1) IC50 of these compounds were determined by the MTT assay (see Table 2).
(§2) The cytotoxic activities were determined using MCF-7, A549, Hela, KB human tumor cells by the MTT colorimetric method. […] Subsequently 20 μL of MTT solution (5 mg/mL) were added to each well and mixed, the cells were then incubated for an additional 4 h. Culture supernatant were removed, 150 μL of DMSO were added to each well to fully dissolve the MTT—formazan crystals. Cell growth inhibition was determined by measuring the absorbance (Abs) at λ = 570 nm using a microplate reader and calculated according to the following equation: Growth inhibition = (1 − OD of treated cells/OD of control cells) × 100% (1)
(§3) The half maximal inhibitory concentrations (IC50) were obtained from linear regression analysis of the concentration-response curves plotted for each tested compound (Bliss’s software). Results were expressed as the mean value of triplicate data points.

lung cancer cells (A549) = conditions: MTT
Method: as §1, §2, §3

[2] = molecular target: α-acetylcholinesterase (AChE) (Homo sapiens, UniProt P22303); assay: biochemical; format: biochemical; conditions: phosphate buffer pH 7.0, 37 °C, triplicate; for pIC50: read-out: Inhibition of AChE IC50; for all read-outs here: key: '-' as 'no action'
Method: α-Acetylcholinesterase inhibitory activity was assayed using 50 mM phosphate buffer (pH 7.0). […] 10 μL of sample solution and 10 μL of α-acetylcholinesterase solution (2 units mL^−1, in the phosphate buffer at pH 7.0) were added to 960 μL of phosphate buffer and incubated at 37 °C for 30 min, and then 20 μL of substrate were added to initiate the enzyme reaction. The enzyme reaction was carried out at 37 °C for 30 min. Product was monitored spectrophotometrically by measuring the absorbance (λ = 400 nm). Huperzine A was used as reference standard inhibitor for comparison. Dose-response curves were obtained by performing assays in the presence of increasing concentrations of inhibitors. IC50 value was determined by interpolation of the dose-response curves. For all tests, the inhibition assays were performed in triplicate.

[3] = tested on: human breast cancer cells (MCF-7); assay: in vitro; conditions: MCF-7 cells, MTT
Method: as §1, §2, §3

[4] = tested on: cervix carcinoma cells (Hela); assay: in vitro; conditions: Hela cells, MTT
Method: as §1, §2, §3

in vitro = conditions: human
Method: as §1, §2, §3

Sequence of α-acetylcholinesterase (AChE) (P22303 32-614): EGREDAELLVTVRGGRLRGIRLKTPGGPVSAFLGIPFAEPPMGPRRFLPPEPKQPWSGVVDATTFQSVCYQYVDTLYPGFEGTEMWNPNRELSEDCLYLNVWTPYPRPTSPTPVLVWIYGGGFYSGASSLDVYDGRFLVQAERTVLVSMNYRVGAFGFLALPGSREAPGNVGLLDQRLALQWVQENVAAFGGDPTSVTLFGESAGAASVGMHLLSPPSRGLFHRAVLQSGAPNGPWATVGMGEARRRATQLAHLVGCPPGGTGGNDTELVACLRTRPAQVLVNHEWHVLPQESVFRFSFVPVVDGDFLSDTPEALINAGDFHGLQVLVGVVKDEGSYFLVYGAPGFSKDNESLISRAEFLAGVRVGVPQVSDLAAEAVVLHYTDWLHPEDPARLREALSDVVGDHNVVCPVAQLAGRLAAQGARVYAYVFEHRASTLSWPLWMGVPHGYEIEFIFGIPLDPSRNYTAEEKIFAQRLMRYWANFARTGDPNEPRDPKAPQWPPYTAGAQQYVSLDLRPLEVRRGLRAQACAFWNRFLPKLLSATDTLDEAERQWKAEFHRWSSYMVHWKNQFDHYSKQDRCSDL

Row | SMILES | Cytotoxicity IC50 KB [1] | cytotoxic / inhibitory activity against KB (in words) [1] | Cytotoxicity IC50 A549 (lung cancer cells (A549)) | cytotoxic / inhibitory activity against A549 (in words) (lung cancer cells (A549)) | Inhibition of AChE IC50 [2] | Cytotoxicity IC50 MCF-7 [3] | cytotoxic / inhibitory activity against MCF-7 (in words) [3] | Cytotoxicity IC50 Hela [4] | cytotoxic / inhibitory activity against Hela (in words) [4] | pIC50 [2] | pIC50 (in vitro; Cytotoxicity IC50 Hela, Hela cells, MTT) | pIC50 (in vitro; Cytotoxicity IC50 MCF-7, MCF-7 cells, MTT) | pIC50 (in vitro; Cytotoxicity IC50 Hela) | pIC50 (in vitro; Cytotoxicity IC50 MCF-7)
1 | COc1cc(OC)c2c(c1O)C(=O)c1sc(C(C)O)cc1C2=O (centres unmarked) [Compound 1, 8-hydroxy-2-[1-hydroxyethyl]-5,7-dimethoxynaphtho[2,3-b] thiophene-4,9-dione] | - | no inhibitory activities | - | no inhibitory activities | - | - | no inhibitory activities | - | no inhibitory activities |  |  |  |  | 
2 | COC1=CC(=O)c2c(O)c(C)c3c(c2C1=O)O[C@@H](C)C3 [Compound 2, anhydrojavanicin] | - | no inhibitory activities | - | no inhibitory activities |  | - | no inhibitory activities | - | no inhibitory activities | 5.70 |  |  |  | 
3 | COc1cc(OC)c2c(c1O)C(=O)c1cc(C)ncc1C2=O [Compound 3, 8-O-methylbostrycoidin] | - | no inhibitory activities | - | no inhibitory activities |  | - | no inhibitory activities | - | no inhibitory activities | 5.17 |  |  |  | 
4 | COc1cc(OC)c2c(c1O)C(=O)C(CC(C)=O)=C(C)C2=O [Compound 4, 8-O-methyljavanicin] | - | no inhibitory activities | - | no inhibitory activities | - | - | no inhibitory activities | - | no inhibitory activities |  |  |  |  | 
5 | CCc1c(OC)cc2c(c1O)C(=O)C[C@H](O)[C@H]2O [Compound 5, botryosphaerone D] | - | no inhibitory activities | - | no inhibitory activities | - | - | no inhibitory activities | - | no inhibitory activities |  |  |  |  | 
6 | CCc1c(OC)cc2c(c1O)C(=O)C(OC)=CC2=O [Compound 6, 6-ethyl-5-hydroxy-3,7-dimethoxynaphthoquinone] | - | no inhibitory activities | - | no inhibitory activities | - | - | no inhibitory activities | - | no inhibitory activities |  |  |  |  | 
7 | CC(C)[C@@H](C)/C=C/[C@@H](C)[C@H]1CC[C@H]2C3=CC(=O)[C@@]4(O)C[C@@H](O)CC[C@]4(C)[C@H]3CC[C@]12C [Compound 7, 3β,5α-dihydroxy-(22E,24R)-ergosta-7,22-dien-6-one] |  | strong or moderate cytotoxic activies |  | strong or moderate cytotoxic activies | - |  | strong or moderate cytotoxic activies |  | strong or moderate cytotoxic activies |  |  |  |  | 
8 | CC(C)[C@@H](C)/C=C/[C@@H](C)[C@H]1CC[C@@]2(O)C3=CC(=O)[C@@]4(O)C[C@@H](O)CC[C@]4(C)[C@H]3CC[C@]12C [Compound 8, 3β,5α,14α-trihydroxy-(22E,24R)-ergosta-7,22-dien-6-one] |  | weak inhibitory activities |  | weak inhibitory activities | - |  | weak inhibitory activities |  | weak inhibitory activities |  | 4.60 | 4.61 |  | 
9 | CC(=O)O[C@H]1C[C@H]2[C@H]3[C@H]([C@@H](O)C[C@]2(C)[C@H]1[C@H](C)/C=C/[C@H](C)C(C)C)[C@@]1(C)CC[C@H](O)C[C@@H]1C(=O)[C@@H]3O [Compound 9, NGA0187] | - | no inhibitory activities | - | no inhibitory activities |  | - | no inhibitory activities | - | no inhibitory activities | 5.72 |  |  |  | 
10 | COc1cccc2c1C(=O)c1c(O)c3c(c(O)c1C2=O)C[C@@](O)(C(=O)CO)C[C@@H]3O[C@H]1C[C@H](N)[C@@H](O)[C@H](C)O1 [Epirubicin, reference compound] |  |  |  |  |  |  |  |  |  |  |  |  | 5.97 | 6.38
